Test results published in a melting point compilation (Tetko et al.).
Residues, ends and D or L forms follow the SMILES beside them. *: point of attachment. Cyclohexanecarbonyl = O=C(C1CCCCC1)*; Bn = c1ccc(C*)cc1

Row | Compound | melting point [°C]
1 | CC(CO)Nc1nc(Nc2ccc(S(C)(=O)=NS(=O)(=O)CC[Si](C)(C)C)cc2)ncc1Br (mixture of isomers) | 194 to 197
2 | CCCCCCCCCCCCCCCCCCOC(=O)CSCc1cc(CSCC(=O)OCCCCCCCCCCCCCCCCCC)c(O)c(CSCC(=O)OCCCCCCCCCCCCCCCCCC)c1 | 70 to 71
3 | O=P(O)(O)CN(CP(=O)(O)O)CP(=O)(O)O | 215
4 | COc1cc([N+](=O)[O-])cc(C(=O)C2CCCN(C(=O)c3cc([N+](=O)[O-])cc(OC)c3OC)NNN(C(=O)c3cc([N+](=O)[O-])cc(OC)c3OC)CCCC(C(=O)c3cc([N+](=O)[O-])cc(OC)c3OC)CC2)c1OC (configuration not stated) | 232 to 235
5 | COc1cc(OC)c(/C=C/C(c2ccc(OC)c(NC(=O)CO)c2)S(=O)(=O)C(/C=C/c2c(OC)cc(OC)cc2OC)c2ccc(OC)c(NC(=O)CO)c2)c(OC)c1 (configuration not stated) | 174 to 176
6 | Cc1c(SCCN2CCOCC2)ccnc1CSc1nc2ccccc2n1CC(=O)N(C)C | 178 to 180
7 | CS(=N)(=O)c1ccc([N+](=O)[O-])c(C(=O)C2C=CC(C(F)(F)F)=C(Oc3ccccc3)C2(Cl)[N+](=O)[O-])c1 (configuration not stated) | 62 to 63
8 | N#Cc1ccc(C=Cc2ccc(OCc3ccc4ccccc4n3)cc2)cc1 | 116 to 118
9 | CC(=O)OCC1OC(SCCCCCCOC2CCC3(C)C(=CCC4C3CCC3(C)C(C(C)CCCC(C)C)CCC43)C2)C(OC(C)=O)C(OC(C)=O)C1OC(C)=O (configuration not stated) | 103 to 104
10 | CCOC1OC(CO)C(OC2OC(COC(C)=O)C(OC3OC(COC(C)=O)C(OC(C)=O)C(OC(C)=O)C3OC(C)=O)C(OC(C)=O)C2OC(C)=O)C(O)C1NC(C)=O (configuration not stated) | 260 to 262
11 | CN=S(=O)(NC(=O)Nc1nc(C)nc(OC)n1)c1ccccc1Cl (configuration not stated) | 154 to 160
12 | Cc1ccc(S(=O)(=O)NNOC(C)C)cc1 | 112 to 113
13 | CCCCCCCCCCSc1c(SCCCCCCCCCC)c(SCCCCCCCCCC)c(C(O)=NCCO)c(C(=O)O)c1SCCCCCCCCCC | 57 to 58
14 | CN1CCCC1=NC(=O)Nc1ccc(OCc2ccccc2)cc1 | 140 to 142
15 | CC12CC3CC(C)(C1)CC(N)(C3)C2 | 153
16 | CC(CCC(=O)O)C1CCC2C3C(O)CC4CC(NC(=O)CNC(=O)CN(CCN(CC(=O)O)CC(=O)O)CCN(CC(=O)O)CC(=O)O)CCC4(C)C3CC(O)C12C (configuration not stated) | 120 to 125
17 | CCCCCCCCCCCCCCCCCCN(CCCCCCCCCCCCCCCCCC)C(=O)c1cc(NS(=O)(=O)c2ccc(S(=O)(=O)CCC#N)cc2)c2ccccc2c1O | 85 to 86
18 | CC(OC(C)C(I)=C(I)I)C(I)=C(I)I (configuration not stated) | 43.5 to 44.5
19 | Cc1c(O)cc(C(C)(C)C)c(O)c1C(=O)Nc1ccc(S(=O)(=O)C(F)(F)F)cc1Cl | 163 to 166
20 | [C-]#[N+]Cc1nc(-c2ccccc2)c(-c2ccccc2)o1 | 95 to 96
21 | CCC1(O)CC(OC2CC(N(C)C)C(OC3CC(O)C(OC4CCC(=O)C(C)O4)C(C)O3)C(C)O2)c2c(cc3c(c2O)C(=O)c2c(O)cccc2C3=O)C1C(=O)OC (configuration not stated) | 148
22 | CCCCCCCCCCCCCCCCCCCCCCCCCCCCCCCCCCCCCCCCCCCC | 87.5 to 88

The remaining lines, values ahead:

Row | melting point [°C] | Compound
23 | 137 to 139 | O=C(O)CCC(Cc1cccc(Cl)c1)(C(=O)C=Cc1ccc(Cl)cc1)c1ccccc1 (configuration not stated)
24 | 128 | CC(C)CCCOC(=O)NCCc1nc(-c2ccc(-c3ccccc3)cc2)c[nH]1
25 | 85 to 90 | COC(=O)Cc1ccc(C(NC(=O)CCC(Cc2ccccc2)(NC(=O)c2ccc(N(C)C3CCc4cc5nc(C)n(COC(=O)C(C)(C)C)c(=O)c5cc43)cc2F)C(=O)O)C(=O)OC)cc1 (configuration not stated)
26 | 84 to 88 | CC(C)[C@H](NC(=O)N(C)Cc1ccccn1)C(=O)N[C@@H](Cc1ccccc1)[C@H](O)[C@@H](O)[C@H](Cc1ccccc1)NC(=O)[C@@H](NC(=O)N(C)Cc1cscn1)C(C)C
27 | 188 to 192 | CCc1c(CCNC(=O)CCC(=O)CCC(=O)NCCc2ccc(OCc3ccccc3)c(OCc3ccccc3)c2CC)ccc(OCc2ccccc2)c1OCc1ccccc1
28 | 163 to 166 | COc1cc(OC)c(/C=C/C(c2ccc(OC)c(NC(=O)c3ccccc3)c2)S(=O)(=O)C(/C=C/c2c(OC)cc(OC)cc2OC)c2ccc(OC)c(NC(=O)c3ccccc3)c2)c(OC)c1 (configuration not stated)
29 | 112 | Cc1cc(-n2ccnc2)c2cccc(OCc3c(Cl)ccc(S(=O)(=O)N4CCCC4C(=O)NCC4CCN(C(=O)CCCC(=O)OC(C)(C)C)CC4)c3Cl)c2n1 (configuration not stated)
30 | 112 to 114 | COc1ccc(C2Sc3ccccc3N(CCN(C)C)C(=O)C2OC(=O)C=CC(=O)OC2C(=O)N(CCN(C)C)c3ccccc3SC2c2ccc(OC)cc2)cc1 (configuration not stated)
31 | 150 | CO/N=C(\C(=O)N[C@@H]1C(=O)N2C(C(=O)OC(C)(C)C)=C(CI)SC[C@H]12)c1nc(C(c2ccccc2)(c2ccccc2)c2ccccc2)sc1N
32 | 108 to 111 | CC(C)[C@H](NC(=O)N(C)Cc1csc(N)n1)C(=O)N[C@@H](Cc1ccccc1)[C@H](O)[C@@H](O)[C@H](Cc1ccccc1)NC(=O)[C@@H](NC(=O)N(C)Cc1nccs1)C(C)C
33 | 181 to 183 | COC(=O)C(C)NC(=O)C(Cc1ccc(OCc2ccccc2)cc1)NC(=O)C(COCc1ccccc1)NC(=O)C(Cc1c[nH]c2ccccc12)NC(=O)C1CCCCC1 (configuration not stated) (Cyclohexanecarbonyl-WS(Bn)Y(Bn)A-OMe; configuration not given here)
34 | 75 to 76 | CCC(C=CC(C)C1CCC2C3CC=C4CC(OC(=O)N(CC(O)COC(c5ccccc5)(c5ccccc5)c5ccccc5)C(C)C)CCC4(C)C3CCC12C)C(C)C (configuration not stated)
35 | 231 to 233 | CCc1nc(OC)c(NC(=O)N2CCN(c3cc(OC)cc(OC)c3)CC2)cc1C(=O)NC(C)C(=O)Nc1cc(CO)cc(Nc2c3ccccc3nc3ccccc23)c1 (configuration not stated)
36 | 169 to 171 | CCC(C)(C)c1ccc(OCC(=O)Nc2cccc(C(=O)Nc3[nH]n(-c4c(Cl)cc(Cl)cc4Cl)c(=O)c3-n3nnn(-c4ccccc4)c3=S)c2)c(C(C)(C)CC)c1
37 | 95 | CCN(C(=O)OC(C)(C)C)C(=NC(=O)OC(C)(C)C)N1CCN(C(=O)[C@@H]2CCCN2S(=O)(=O)c2ccc(Cl)c(COc3cccc4ccc(C)nc34)c2Cl)CC1
38 | 178 to 179 | CC(C)[C@H](NC(=O)N1CCN(Cc2ccccc2)CC1)C(=O)N[C@@H](Cc1ccccc1)[C@@H](O)[C@H](O)[C@H](Cc1ccccc1)NC(=O)[C@@H](NC(=O)N1CCN(Cc2ccccc2)CC1)C(C)C
39 | 79 to 81 | CCCCCCCCCCCCCCCCCCOc1cc(OCCCCCc2cccc(OCc3ccccc3)c2OCc2ccccc2)cc(N(CC(=O)O)CC(=O)O)c1
40 | 109 to 111 | CC(C)[C@H](NC(=O)N(C)Cc1ccccn1)C(=O)N[C@@H](Cc1ccccc1)C[C@H](OC(=O)CN(C)C)[C@H](Cc1ccccc1)NC(=O)[C@@H](NC(=O)N(C)Cc1ccccn1)C(C)C
41 | 129 to 130 | CC1(C)CC(OC(=O)C(CCCCCCC(Cc2ccccc2)(C(=O)OC2CC(C)(C)NC(C)(C)C2)C(=O)OC2CC(C)(C)NC(C)(C)C2)(Cc2ccccc2)C(=O)OC2CC(C)(C)NC(C)(C)C2)CC(C)(C)N1
42 | 115 to 120 | CC(C)[C@H](NC(=O)N(C)Cc1csc(NC(=O)OC(C)(C)C)n1)C(=O)N[C@@H](Cc1ccccc1)C[C@H](O)[C@H](Cc1ccccc1)NC(=O)[C@@H](NC(=O)N(C)Cc1csc(NC(=O)OC(C)(C)C)n1)C(C)C
